Assay results: ChEMBL document CHEMBL1158318, “Two 5-HT 1A Receptor-Interactive Tryptamine Derivatives from the Unripe Fruit of Evodia rutaecarpa” (J Nat Prod, 1997)

These compounds were tested against T1, 5-hydroxytryptamine receptor 1A (Homo sapiens, UniProt P08908) (assay: Displacement of [3H]8-OH-DPAT from 5HT1A receptor by vacuum filtration).
T1 sequence (P08908 whole entry): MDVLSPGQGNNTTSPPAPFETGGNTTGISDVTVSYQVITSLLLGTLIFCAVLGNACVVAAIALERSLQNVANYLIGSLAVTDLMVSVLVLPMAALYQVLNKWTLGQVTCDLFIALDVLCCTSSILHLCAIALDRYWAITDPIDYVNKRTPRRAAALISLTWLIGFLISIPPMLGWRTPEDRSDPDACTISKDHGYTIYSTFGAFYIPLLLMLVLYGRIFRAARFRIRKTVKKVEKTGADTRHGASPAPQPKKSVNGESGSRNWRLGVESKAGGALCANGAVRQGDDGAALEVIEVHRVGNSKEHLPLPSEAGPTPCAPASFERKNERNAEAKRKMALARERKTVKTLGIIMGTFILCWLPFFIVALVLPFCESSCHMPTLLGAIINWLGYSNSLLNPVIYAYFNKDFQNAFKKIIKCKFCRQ

| Structure (SMILES) | Ki |
| --- | --- |
| C[n+]1c2n(c(=O)c3ccccc31)CCc1c-2[nH]c2ccccc12 [DEHYDROEVODIAMINE] | 36 µM |
| CNCC(O)c1ccc(O)cc1 (stereo not drawn) [OXEDRINE] | 63 µM |
| O=c1c2ccccc2nc2n1CCc1c-2[nH]c2ccccc12 [RUTAECARPINE] | > 100 µM |
| O=c1c(O[C@@H]2O[C@H](CO)[C@H](O)[C@H](O)[C@H]2O)c(-c2ccc(O)c(O)c2)oc2cc(O)cc(O)c12 [HYPEROSIDE] | > 100 µM |
| CC1(C)O[C@H]2CC(=O)OC[C@]23[C@H]2CC[C@@]4(C)[C@H](c5ccoc5)OC(=O)[C@H]5O[C@]54[C@]2(C)C(=O)C[C@@H]13 [LIMONIN] | > 100 µM |
| CNc1ccccc1C(=O)N1CCc2c([nH]c3ccccc23)C1=O [RHETSININE] | 32 µM |
| COc1cc(-c2oc3cc(O)cc(O)c3c(=O)c2O[C@@H]2O[C@H](CO)[C@H](O)[C@H](O)[C@H]2O)ccc1O | > 100 µM |
| CN1c2ccccc2C(=O)N2CCc3c([nH]c4ccccc34)[C@H]21 [EVODIAMINE] | > 100 µM |
